Assay results reported in ChEMBL document CHEMBL1671744 (Antimicrob Agents Chemother, 2010).
≈ marks a conversion by molar mass, not a printed value. Where a SMILES comes first, the peptide text is derived from it. [ ]: non-standard residue; d: D form. The star is where a group is joined. Leu(5,5,5,5',5',5'-F6) = N[C@@H](CC(C(F)(F)F)C(F)(F)F)C(=O)O; Undecanoyl = CCCCCCCCCCC(=O)*

Experiments:
[1] = tested on: Escherichia coli; assay: Antimicrobial activity against Escherichia coli; type: functional
[2] = tested on: Pseudomonas aeruginosa; assay: microbe, parasite or virus in culture; type: functional
[3] = erythrocyte
[4] = in vitro
[5] = tested on: Staphylococcus aureus; assay: Antimicrobial activity against Staphylococcus aureus; type: functional
[6] = Toxicity in RBC assessed as hemolysis at 25 uM; type: cell-based; conditions: erythrocyte
[7] = tested on: Aspergillus fumigatus; assay: Antimicrobial activity against Aspergillus fumigatus; type: functional
[8] = tested on: Bacillus subtilis; assay: Antimicrobial activity against Bacillus subtilis; type: functional

CC[C@@H](C)[C@@H](NC(=O)[C@@H](C)NC(=O)[C@@H](CCCCN)NC(=O)[C@@H](CC(C)C)NC(=O)[C@@H](C)NC(=O)[C@H](NC(=O)[C@@H](Cc1cnc[nH]1)NC(=O)[C@@H](CC(C)C)NC(=O)[C@H](NC(=O)[C@H](NC(=O)[C@@H](CCCCN)NC(=O)[C@@H](CCCCN)NC(=O)[C@@H](C)NC(=O)[C@@H](CO)NC(=O)[C@@H](CCCCN)NC(=O)[C@@H](Cc1ccccc1)NC(=O)[C@H](NC(=O)[C@@H](CCCCN)NC(=O)[C@@H](CC(C)C)NC(=O)[C@@H](Cc1ccccc1)NC(=O)[C@@H](CO)NC(=O)[C@@H](CCCCN)NC(=O)[C@@H](Cc1c[nH]c2ccccc12)NC(=O)[C@@H](CCCCN)NC(C)=O)[C@H](C)O)[C@H](C)O)C(C)C)[C@H](C)O)C(=O)N[C@H](CO)C(=O)N[C@H](CO)C(N)=O
MIC [1]: 1.1 µM (≈ 3.29 µg/mL) | MIC [2]: 5.3 µM (≈ 15.9 µg/mL)

CC[C@H](C)[C@H](NC(=O)[C@H](CC(C)C)NC(=O)[C@H](CCCCN)NC(=O)[C@H](CC(C)C)NC(=O)[C@H](CC(C)C)NC(=O)[C@@H](NC(=O)[C@H](Cc1cnc[nH]1)NC(=O)[C@H](CC(C)C)NC(=O)[C@@H](NC(=O)[C@@H](NC(=O)[C@H](CCCCN)NC(=O)[C@H](CCCCN)NC(=O)[C@H](CC(C)C)NC(=O)[C@H](CO)NC(=O)[C@H](CCCCN)NC(=O)[C@H](Cc1ccccc1)NC(=O)[C@@H](NC(=O)[C@H](CCCCN)NC(=O)[C@H](CC(C)C)NC(=O)[C@H](Cc1ccccc1)NC(=O)[C@H](CO)NC(=O)[C@H](Cc1c[nH]c2ccccc12)NC(=O)[C@H](CCCCN)NC(C)=O)[C@@H](C)O)[C@@H](C)O)C(C)C)[C@@H](C)O)C(=O)N[C@@H](CO)C(=O)N[C@@H](CO)C(N)=O
MIC [2]: 168 µM (≈ 502 µg/mL) | MHC [3]: 1.3 µM

N=C(N)NCCC[C@H](NC(=O)[C@H](Cc1c[nH]c2ccccc12)NCCCC[C@H](N[C@@H](Cc1c[nH]c2ccccc12)C(=O)N[C@@H](CCCNC(=N)N)C(=O)O)C(=O)NCCCC[C@H](NC(=O)[C@H](CCCCN[C@@H](Cc1c[nH]c2ccccc12)C(=O)N[C@@H](CCCNC(=N)N)C(=O)O)N[C@@H](Cc1c[nH]c2ccccc12)C(=O)N[C@@H](CCCNC(=N)N)C(=O)O)C(=O)NCCC(N)=O)C(=O)O
MIC [1]: 2.4 µM (≈ 4.43 µg/mL) | HC50 ([4]; red blood cells): 760 µM | MIC [5]: 8.7 µM (≈ 16.1 µg/mL)

CC(C)C[C@@H](N)C(=O)N[C@@H](CCCCN)C(=O)N[C@@H](CCCCN)C(=O)N[C@H](CC(C)C)C(=O)N[C@H](CC(C)C)C(=O)N[C@H](CC(C)C)C(=O)N[C@@H](CCCCN)C(=O)N[C@@H](CCCCN)C(=O)N[C@H](CC(C)C)C(=O)N[C@H](CC(C)C)C(=O)N[C@@H](CCCCN)C(=O)N[C@@H](CCCCN)C(=O)N[C@H](CC(C)C)C(N)=O
MHC [6]: Non-toxic | MIC [7]: 50 µM (≈ 78.9 µg/mL) | MIC [1]: > 50 µM

CCCCCCCCCCCC(=O)N[C@H](CC(C)C)C(=O)N[C@@H](CCCCN)C(=O)N[C@@H](CCCCN)C(=O)N[C@H](CC(C)C)C(=O)N[C@H](CC(C)C)C(=O)N[C@H](CC(C)C)C(=O)N[C@@H](CCCCN)C(=O)N[C@@H](CCCCN)C(=O)N[C@H](CC(C)C)C(=O)N[C@H](CC(C)C)C(=O)N[C@@H](CCCCN)C(=O)N[C@@H](CCCCN)C(=O)N[C@H](CC(C)C)C(N)=O
MHC [6]: Non-toxic | MIC [7]: 6.25 µM (≈ 11 µg/mL) | MIC [1]: 25 µM (≈ 44 µg/mL)

CCCCCCCCCCCCCCCC(=O)N[C@@H](CCCCN)C(=O)N[C@@H](CCCCN)C(=O)N[C@@H](CCCCN)C(N)=O
MIC [7]: 3.1 µM (≈ 1.98 µg/mL) | MIC [1]: 1.56 µM (≈ 0.998 µg/mL) | HC50 ([4]; red blood cells): 100 µM

N=C(N)NCCC[C@H](NC(=O)[C@H](Cc1c[nH]c2ccccc12)NC(=O)[C@H](CCCNC(=N)N)NC(=O)[C@H](Cc1c[nH]c2ccccc12)NC(=O)[C@H](CCCNC(=N)N)NC(=O)[C@H](Cc1c[nH]c2ccccc12)NC(=O)[C@H](CCCNC(=N)N)NC(=O)[C@H](Cc1c[nH]c2ccccc12)NC(=O)[C@@H](N)CCCNC(=N)N)C(=O)N[C@@H](Cc1c[nH]c2ccccc12)C(N)=O
MIC [1]: 6.2 µM (≈ 10.7 µg/mL) | HC50 ([4]; erythrocyte): 76 µM | MIC [5]: 3.6 µM (≈ 6.22 µg/mL)

CC[C@H](C)[C@H](NC(=O)[C@H](C)NC(=O)[C@H](CCCCN)NC(=O)[C@H](C)NC(=O)[C@H](C)NC(=O)[C@@H](NC(=O)[C@H](Cc1cnc[nH]1)NC(=O)[C@H](CC(C)C)NC(=O)[C@@H](NC(=O)[C@@H](NC(=O)[C@H](CCCCN)NC(=O)[C@H](CCCCN)NC(=O)[C@H](C)NC(=O)[C@H](CO)NC(=O)[C@H](CCCCN)NC(=O)[C@H](Cc1ccccc1)NC(=O)[C@@H](NC(=O)[C@H](CCCCN)NC(=O)[C@H](C)NC(=O)[C@H](Cc1ccccc1)NC(=O)[C@H](CO)NC(=O)[C@H](CCCCN)NC(=O)[C@H](Cc1c[nH]c2ccccc12)NC(=O)[C@H](CCCCN)NC(C)=O)[C@@H](C)O)[C@@H](C)O)C(C)C)[C@@H](C)O)C(=O)N[C@@H](CO)C(=O)N[C@@H](CO)C(N)=O (Ac-KWKSFAKTFKSAKKTVLHTAAKAISS-NH2)
MIC [2]: 168 µM (≈ 488 µg/mL) | MHC [3]: 336 µM

CC(C)C[C@H](NC(=O)[C@H](CC(C)C)NC(=O)[C@H](CCCNC(=N)N)NC(=O)[C@H](Cc1cnc[nH]1)NC(=O)[C@@H](NC(=O)[C@H](CCCNC(=N)N)NC(=O)CNC(=O)[C@@H](NC(=O)[C@@H]1CCCN1C(=O)[C@@H](N)Cc1ccccc1)C(C)C)C(C)C)C(=O)N[C@@H](CCCNC(=N)N)C(=O)N[C@@H](CCCCN)C(=O)O (H-FPVGRVHRLLRK-OH)
MIC [1]: > 173 µM | HC50 ([4]; red blood cells): > 270 µM | MIC [8]: > 173 µM

CC(C)[C@H](NC(=O)[C@H](CCCNC(=N)N)NC(=O)CNC(=O)[C@@H](NC(=O)[C@@H]1CCCN1C(=O)[C@@H](N)Cc1ccccc1)C(C)C)C(=O)N[C@@H](Cc1cnc[nH]1)C(=O)N[C@@H](CCCNC(=N)N)C(=O)N[C@@H](CC(C(F)(F)F)C(F)(F)F)C(=O)N[C@@H](CC(C(F)(F)F)C(F)(F)F)C(=O)N[C@@H](CCCNC(=N)N)C(=O)N[C@@H](CCCCN)C(=O)O (H-FPVGRVHR[Leu(5,5,5,5',5',5'-F6)][Leu(5,5,5,5',5',5'-F6)]RK-OH)
MIC [1]: 23 µM (≈ 39 µg/mL) | HC50 ([4]; red blood cells): > 235 µM | MIC [8]: 5.9 µM (≈ 9.99 µg/mL)

CC[C@H](C)[C@H](NC(=O)CN)C(=O)NCC(=O)N[C@@H](CCCCN)C(=O)N[C@@H](Cc1ccccc1)C(=O)N[C@@H](CC(C)C)C(=O)N[C@@H](Cc1cnc[nH]1)C(=O)N[C@@H](CO)C(=O)N[C@@H](C)C(=O)N[C@@H](CCCCN)C(=O)N[C@@H](CCCCN)C(=O)N[C@@H](Cc1c[nH]c2ccccc12)C(=O)NCC(=O)N[C@@H](CCCCN)C(=O)N[C@@H](C)C(=O)N[C@@H](Cc1ccccc1)C(=O)N[C@H](C(=O)NCC(=O)N[C@@H](CCC(=O)O)C(=O)N[C@H](C(=O)N[C@@H](CCSC)C(=O)N[C@@H](CC(N)=O)C(=O)N[C@@H](CO)C(N)=O)[C@@H](C)CC)C(C)C (H-GIGKFLHSAKKWGKAFVGEIMNS-NH2)
MIC [7]: > 50 µM

CC[C@H](C)[C@H](NC(=O)CN)C(=O)NCC(=O)N[C@@H](CCCCN)C(=O)N[C@@H](Cc1ccccc1)C(=O)N[C@@H](CC(C(F)(F)F)C(F)(F)F)C(=O)N[C@@H](Cc1cnc[nH]1)C(=O)N[C@@H](C)C(=O)N[C@@H](C)C(=O)N[C@@H](CCCCN)C(=O)N[C@@H](CCCCN)C(=O)N[C@@H](Cc1ccccc1)C(=O)N[C@@H](C)C(=O)N[C@@H](CCCCN)C(=O)N[C@@H](C)C(=O)N[C@@H](Cc1ccccc1)C(=O)N[C@H](C(=O)N[C@@H](C)C(=O)N[C@@H](CCC(=O)O)C(=O)N[C@@H](CC(C(F)(F)F)C(F)(F)F)C(=O)N[C@@H](CCSC)C(=O)N[C@@H](CC(N)=O)C(=O)N[C@@H](CO)C(N)=O)C(C)C (H-GIGKF[Leu(5,5,5,5',5',5'-F6)]HAAKKFAKAFVAE[Leu(5,5,5,5',5',5'-F6)]MNS-NH2)
MIC [1]: 0.92 µM (≈ 2.48 µg/mL) | HC50 ([4]; red blood cells): 7.4 µM | MIC [8]: 0.92 µM (≈ 2.48 µg/mL)

CSCC[C@H](NC(=O)[C@@H](NC(=O)[C@H](CCCNC(=N)N)NC(=O)[C@H](Cc1ccccc1)NC(=O)[C@H](C)NC(=O)[C@H](C)NC(=O)[C@H](CCCCN)NC(=O)[C@H](CCCNC(=N)N)NC(=O)[C@H](Cc1ccccc1)NC(=O)[C@H](C)NC(=O)[C@@H]1CCCN1C(=O)[C@@H](N)CCCNC(=N)N)C(C)C)C(=O)N[C@@H](CCCNC(=N)N)C(=O)N[C@@H](C)C(=O)N[C@@H](CS)C(=O)N[C@H](C(N)=O)C(C)C (H-RPAFRKAAFRVMRACV-NH2)
MIC [2]: 4 µM (≈ 7.51 µg/mL) | MHC [3]: > 1300 µM

N=C(N)NCCC[C@H](NC(=O)[C@H](Cc1c[nH]c2ccccc12)NC(=O)[C@H](CCCNC(=N)N)NC(=O)[C@H](Cc1c[nH]c2ccccc12)NC(=O)[C@@H](N)CCCNC(=N)N)C(=O)N[C@@H](Cc1c[nH]c2ccccc12)C(N)=O (H-RWRWRW-NH2)
MIC [1]: 16 µM (≈ 16.7 µg/mL) | HC50 ([4]; erythrocyte): 210 µM | MIC [5]: 8 µM (≈ 8.35 µg/mL)

N=C(N)NCCC[C@H](NC(=O)[C@H](Cc1c[nH]c2ccccc12)NC(=O)[C@H](CCCNC(=N)N)NC(=O)[C@H](Cc1c[nH]c2ccccc12)NC(=O)[C@H](CCCNC(=N)N)NC(=O)[C@H](Cc1c[nH]c2ccccc12)NC(=O)[C@@H](N)CCCNC(=N)N)C(=O)N[C@@H](Cc1c[nH]c2ccccc12)C(N)=O (H-RWRWRWRW-NH2)
MIC [1]: 9.6 µM (≈ 13.3 µg/mL) | HC50 ([4]; erythrocyte): 100 µM | MIC [5]: 5.1 µM (≈ 7.07 µg/mL)

CCCCCCCCCCC(=O)NCC(=O)N[C@H](C(=O)NCC(=O)N[C@@H](CCCCN)C(=O)N[C@@H](Cc1ccccc1)C(=O)N[C@@H](CC(C)C)C(=O)N[C@@H](Cc1cnc[nH]1)C(=O)N[C@@H](CO)C(=O)N[C@@H](C)C(=O)N[C@@H](CCCCN)C(=O)N[C@@H](CCCCN)C(=O)N[C@@H](Cc1c[nH]c2ccccc12)C(=O)NCC(=O)N[C@@H](CCCCN)C(=O)N[C@@H](C)C(=O)N[C@@H](Cc1ccccc1)C(=O)N[C@H](C(=O)NCC(=O)N[C@@H](CCC(=O)O)C(=O)N[C@H](C(=O)N[C@@H](CCSC)C(=O)N[C@@H](CC(N)=O)C(=O)N[C@@H](CO)C(N)=O)[C@@H](C)CC)C(C)C)[C@@H](C)CC (Undecanoyl-GIGKFLHSAKKWGKAFVGEIMNS-NH2)
MIC [7]: 6.25 µM (≈ 16.7 µg/mL)

CC[C@H](C)[C@H](NC(=O)CN)C(=O)NCC(=O)N[C@@H](CCCCN)C(=O)N[C@@H](Cc1ccccc1)C(=O)N[C@@H](CC(C)C)C(=O)N[C@@H](Cc1c[nH]cn1)C(=O)N[C@@H](CO)C(=O)N[C@@H](C)C(=O)N[C@@H](CCCCN)C(=O)N[C@@H](CCCCN)C(=O)N[C@@H](Cc1ccccc1)C(=O)NCC(=O)N[C@@H](CCCCN)C(=O)N[C@@H](C)C(=O)N[C@@H](Cc1ccccc1)C(=O)N[C@H](C(=O)NCC(=O)N[C@@H](CCC(=O)O)C(=O)N[C@H](C(=O)N[C@@H](CCSC)C(=O)N[C@@H](CC(N)=O)C(=O)N[C@@H](CO)C(=O)O)[C@@H](C)CC)C(C)C [MAGAININ 2] (H-GIGKFLHSAKKFGKAFVGEIMNS-OH)
MIC [1]: 1 µM (≈ 2.47 µg/mL) | HC50 ([4]; red blood cells): 70.6 µM | MIC [8]: 1 µM (≈ 2.47 µg/mL)
